From patent US20010004528A1, “USE OF 13C NUCLEAR MAGNETIC RESONANCE TO DETECT BINDING TO TARGET MOLECULES” (priority 1995, published 2001) come the findings set out here.

The experiment addresses T1, FKBP (Homo sapiens, UniProt P62942).
T1 construct: made in house; host or cells: E. coli
The experiment is described as follows: Screening for ligands using 13C/1H NMR correlation spectra of 13C-enriched FKBP. Format: binding. On the procedure: Uniformly ^13C-enriched FKBP was prepared in accordance with the procedures detailed above. […]
Two-dimensional ^13C/^1H NMR spectra were generated at 30° C. on a Bruker DRX500 NMR spectrometer equipped with a triple resonance probe and Bruker sample changer. The ^13C/^1H HSQC spectra were acquired as 64×1024 complex points using sweep widths of 3771 Hz (^13C, t1) and 8333 Hz (^1H, t2). A delay of 1 second between scans and 8 scans per free induction decay (fid) were employed in the data collection. All NMR spectra were processed and analyzed on Silicon Graphics computers.
A first two-dimensional ^13C/^1H NMR correlation spectrum was acquired for the ^13C-labeled FKBP target molecule as described above. The FKBP target was then exposed to a library mixture of test compounds. Stock solutions of the compounds were made at 100 mM and 1 M. In addition, a combination library was prepared which contained 8-10 compounds per sample at a concentration of 100 mM for each compound.
The pH of the 1 M stock solution was adjusted with acetic acid and ethanolamine so that no pH change was observed upon a 1/10dilution with a 100 mM phosphate buffered solution (pH 7.0). It is important to adjust the pH, because small changes in pH can alter the chemical shifts of the biomolecules and complicate the interpretation of the NMR data.
The compounds in the library were selected on the basis of size (molecular weight=100-300) and molecular diversity. The molecules in the collection had different shapes (for example, flat aromatic rings(s), puckered aliphatic rings(s), straight and branched chain aliphatics with single, double, or triple bonds) and diverse functional groups (for example, carboxylic acids, esters, ethers, amines, aldehydes, ketones, and various heterocyclic rings) to maximize the possibility of discovering compounds that interact with widely diverse binding sites. […]

T1 sequence (P62942 whole entry): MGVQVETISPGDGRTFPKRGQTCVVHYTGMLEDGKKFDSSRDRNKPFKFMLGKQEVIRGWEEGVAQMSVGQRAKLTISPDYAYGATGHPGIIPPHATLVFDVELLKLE

Turning to `c1ccc(-c2ncc[nH]2)cc1` [2-phenylimidazole], the “involvement of alanyl residues in binding (13C/1H correlation spectra)” value (FKBP selectively 13C labeled at alanyl residues, 2-phenylimidazole 0.25 mM) is reported as “none of the alanyl residues are involved in the binding”. Further, the “binding site residues from chemical shift changes in 13C/1H correlation spectra” value (FKBP selectively 13C/15N/2H labeled at valinyl and leucyl residues, 2-phenylimidazole 0.25 mM) was “binding is occurring at or near the Leu^97 and Val^55 residues”. Moreover, under “uniformly 13C-enriched FKBP 0.2 mM, compound about 0.25 mM, phosphate buffer pH 6.5, 30° C.”, the “binding to FKBP detected by chemical shift changes in 13C/1H correlation spectra” value was “found to bind to FKBP”.
